From patent US8133849B2, “Herbicidal compounds” (Syngenta Limited, priority 2007, dated 2012)

Legend:
Format in all cases: in vivo
[1] = test system: Amaranthus retroflexus; assay: Example B1 herbicidal action, post-emergence, seed trays in climatic chamber, damage score 0-10; conditions: 1000 g/ha, evaluated after 9 days, 10=total damage to plant, 0=no damage to plant
Protocol: (§1) Seeds of a variety of test species were sown in sterilized standard soil in seed trays each having 96 cells. After cultivation for 8 to 9 days cultivation (post-emergence) under controlled conditions in a climatic chamber (cultivation at 23/17° C., day/night; 13 hours light; 50-60% humidity), the plants were treated with an aqueous spray solution of 1000 mg/l of the active ingredient dissolved in 10% DMSO (dimethyl sulfoxide, CAS RN 67-68-5) as a solvent, equivalent to 1000 g/ha. The plants were grown in the climatic chamber after application at (24/19° C., day/night; 13 hours light; 50-60% humidity) and watered twice daily. After 9 days until the test was evaluated (10=total damage to plant, 0=no damage to plant)

[2] = test system: Solanum nigrum; assay: as above; conditions: 1000 g/ha, evaluated after 9 days, 10=total damage to plant, 0=no damage to plant
Protocol: as §1

[3] = test system: Stellaria media; assay: as above; conditions: 1000 g/ha, evaluated after 9 days, 10=total damage to plant, 0=no damage to plant
Protocol: as §1

[4] = test system: Nasturtium officinale; assay: as above; conditions: 1000 g/ha, evaluated after 9 days, 10=total damage to plant, 0=no damage to plant
Protocol: as §1

[5] = test system: Ipomea hederaceae; assay: Example B2 herbicidal action, post-emergence, pots in glasshouse, damage score 0-10; conditions: application post-emergence, rate 1000 g/ha, evaluated after 13 days
In short: (§2)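 Pot-grown plants were sprayed post-emergence at 8 days with active ingredient in aqueous spray derived from acetone/water (50:50) containing 0.5% Tween 20. Glasshouse conditions were 24/16° C day/night, 14 h light and 65% humidity, with watering twice daily. Damage was scored 13 days after spraying.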

[6] = test system: Amaranthus retroflexus; assay: as above; conditions: application post-emergence, rate 1000 g/ha, evaluated after 13 days
In short: as §2

[7] = test system: Solanum nigrum; assay: as above; conditions: application post-emergence, rate 1000 g/ha, evaluated after 13 days
In short: as §2

[8] = test system: Echinochloa crus-galli; assay: as above; conditions: application post-emergence, rate 1000 g/ha, evaluated after 13 days
In short: as §2

[9] = test system: Setaria faberi; assay: as above; conditions: application post-emergence, rate 1000 g/ha, evaluated after 13 days
In short: as §2

SMILES	damage to plant, AMARE [1]	damage to plant, SOLNI [2]	damage to plant, STEME [3]	damage to plant, NAAOF [4]	IPOHE damage score (10=total damage to plant; 0=no damage to plant) [5]	AMARE damage score (10=total damage to plant; 0=no damage to plant) [6]	SOLNI damage score (10=total damage to plant; 0=no damage to plant) [7]	ECHCG damage score (10=total damage to plant; 0=no damage to plant) [8]	SETFA damage score (10=total damage to plant; 0=no damage to plant) [9]
CN1c2nccnc2C(OC(=O)C2CC2)=C(c2ccc(Cl)cc2Cl)S1(=O)=O [Compound C1]	0	3	6	4	–	–	–	–	–
CC(C)C(=O)OC1=C(c2cc(C(F)(F)F)ccc2Br)S(=O)(=O)N(CC(F)F)c2nccnc21 [Compound C59]	–	–	–	–	10	10	10	7	3
CCN1c2nccnc2C(O)=C(c2c(Cl)ccc(Cl)c2Cl)S1(=O)=O [Compound D36]	–	–	–	–	10	10	10	6	2
CC(C)C(=O)OC1=C(c2cc(I)ccc2Cl)S(=O)(=O)N(CC(F)F)c2nccnc21 [Compound C54]	–	–	–	–	8	6	8	3	2
CC(C)C(=O)OC1=C(c2ccccc2SC(F)(F)F)S(=O)(=O)N(CC(F)F)c2nccnc21 [Compound C18]	–	–	–	–	6	9	3	1	0
CC(C)C(=O)OC1=C(c2cc(Cl)ccc2C(F)(F)F)S(=O)(=O)N(CC(F)F)c2nccnc21 [Compound C113]	–	–	–	–	9	8	10	7	6
CCSC(=O)OC1=C(c2cccc(Cl)c2Cl)S(=O)(=O)N(CC)c2nccnc21 [Compound C99]	–	–	–	–	3	3	8	2	1
CCN1c2nccnc2C(OC(=O)C(C)(C)C)=C(c2cccc(C(F)(F)F)c2Cl)S1(=O)=O [Compound C76]	–	–	–	–	0	0	3	0	0
COCN1c2nccnc2C(OC(=O)C(C)(C)C)=C(c2ccc(Cl)cc2Cl)S1(=O)=O [Compound C11]	–	–	–	–	2	1	6	3	4
CCOC(=O)c1ccc(C(F)(F)F)nc1C1=C(OC(=O)SC)c2nccnc2N(CCC(F)F)S1(=O)=O [Compound C139, 2-[1-(3,3-difluoro-propyl)-4-methylsulfanylcarbonyloxy-2,2-dioxo-1,2-dihydro-2-λ-6-thia-1,5,8-triaza-naphthalen-3-yl]-6-trifluoromethyl-nicotinic acid ethyl ester]	–	–	–	–	1	0	0	0	3
CCN1c2nccnc2C(O)=C(c2c(Cl)ccc(Cl)c2C(F)(F)F)S1(=O)=O [Compound D26]	–	–	–	–	8	8	8	7	4
O=S1(=O)C(c2c(F)cccc2C(F)(F)F)=C(O)c2nccnc2N1CC(F)F [Compound D39]	–	–	–	–	10	10	9	9	9
CCN1c2nccnc2C(O)=C(c2cc(C(F)(F)F)ccc2C(F)(F)F)S1(=O)=O [Compound D24]	–	–	–	–	10	6	10	3	1
CC(C)C(=O)OC1=C(c2ccc(C(F)(F)F)cc2C(F)(F)F)S(=O)(=O)N(CC(F)F)c2nccnc21 [Compound C127]	–	–	–	–	8	8	10	4	2
CCN1c2nccnc2C(O)=C(c2ccc(Cl)c(Cl)c2)S1(=O)=O [Compound D8]	–	–	–	–	0	9	2	0	0
Cc1ccc(C(F)(F)F)c(C2=C(OC(=O)C(C)C)c3nccnc3N(CC(F)F)S2(=O)=O)c1 [Compound C146]	–	–	–	–	9	8	7	4	2
CC(C)(C)C(=O)OC1=C(c2cc(C(F)(F)F)ccc2C(F)(F)F)S(=O)(=O)N(CC(F)F)c2nccnc21 [Compound C44]	–	–	–	–	10	10	10	9	6
C=CCN1c2nccnc2C(OC(=O)C(C)(C)C)=C(c2cc(Cl)ccc2C(F)(F)F)S1(=O)=O [Compound C118]	–	–	–	–	4	6	8	5	4
O=S1(=O)C(c2ccc(Br)cc2C(F)(F)F)=C(O)c2nccnc2N1CC(F)F [Compound D56]	–	–	–	–	10	10	9	7	6
CCSC(=O)OC1=C(c2c(Cl)ccc(Cl)c2Cl)S(=O)(=O)N(C)c2nccnc21 [Compound C94]	–	–	–	–	9	6	9	6	2
CCc1cc(C)cc(CC)c1C1=C(OC(=O)C(C)C)c2nccnc2N(CC(F)F)S1(=O)=O [Compound C48]	–	–	–	–	6	3	5	0	0
CCN1c2nccnc2C(OC(=O)C(C)(C)C)=C(c2cc(Cl)ccc2C(F)(F)F)S1(=O)=O [Compound C108]	–	–	–	–	3	4	7	3	2
CC(C)(C)C(=O)OC1=C(c2ccc(Cl)cc2Cl)S(=O)(=O)N(CC(F)(F)F)c2nccnc21 [Compound C104]	–	–	–	–	9	10	10	6	3
CCSC(=O)OC1=C(c2ccccc2I)S(=O)(=O)N(CC(F)F)c2nccnc21 [Compound C82]	–	–	–	–	10	10	10	9	8
